Results on 15 compounds are retold here after ChEMBL document CHEMBL1134209, “Syntheses and evaluation of pyrido[2,3-dlpyrimidine-2,4-diones as PDE 4 inhibitors” (Bioorg Med Chem Lett, 2001).

SMILES strings stand for the structures.

The term Inhibition denotes the percentage by which the read-out fell short of the control. Lower therefore signals little suppression. A word on the IC50: it is the concentration that gives 50% inhibition. A lower IC50 goes with higher potency.

In the first assay the target is Phosphodiesterase 4 (Rattus norvegicus) (UniProt P14270+P14646+P14644+P54748). The assay is described as follows: In vitro inhibitory activity against phosphodiesterase 4 from rat liver at concentration of 3 uM.
For `CCOc1ccc(-c2ccnc3c2c(=O)n(Cc2ccccc2)c(=O)n3C)cc1`, the Inhibition is 35.1%. On the same count and under the same terms, then `Cn1c(=O)n(Cc2ccccc2)c(=O)c2cc(-c3ccccc3F)cnc21`, with 46.4%. On the same count and under the same terms, then `Cn1c(=O)n(Cc2ccccc2)c(=O)c2cc(COc3ccccc3)cnc21`, with 45.1%. Same read-out and setting: then `Cn1c(=O)n(Cc2ccccc2)c(=O)c2cc(-c3ccc(Cl)cc3)cnc21`, with 47.8%; and `Cn1c(=O)n(Cc2ccccc2)c(=O)c2cc(-c3cccc(C(F)(F)F)c3)cnc21`, with 37.6%.

On to `Cn1c(=O)n(Cc2ccccc2)c(=O)c2cc(Cc3ccccc3)cnc21`, for which the Inhibition amounted to 68.2%.

`Cn1c(=O)n(Cc2ccccc2)c(=O)c2c(-c3ccccc3F)ccnc21`: the Inhibition stood at 69.7%. The same measure, in the same setting: the result for `Cn1c(=O)n(Cc2ccccc2)c(=O)c2cc(-c3ccccc3)cnc21` reads 31.3%; that for `Cn1c(=O)n(Cc2ccccc2)c(=O)c2cc(COCc3ccccc3)cnc21`, 49.8%.

Compound `CCCOCc1cnc2c(c1)c(=O)n(Cc1ccccc1)c(=O)n2C` registered an Inhibition of 46.7%.

With `Cn1c(=O)n(Cc2ccccc2)c(=O)c2cc(-c3cccc([N+](=O)[O-])c3)cnc21`, the Inhibition is 23.5%.

Regarding `Cn1c(=O)n(Cc2ccccc2)c(=O)c2c(Cc3ccccc3)ccnc21`, the Inhibition came to 57.1%. Same read-out and setting: then `Cn1c(=O)n(Cc2ccccc2)c(=O)c2cc(-c3ccc(F)cc3)cnc21`, with 44%; and `Cn1c(=O)n(Cc2ccccc2)c(=O)c2cc(-c3ccccc3C(F)(F)F)cnc21`, with 53.7%; and `CCOC(=O)c1cnc2c(c1)c(=O)n(Cc1ccccc1)c(=O)n2C`, with 43%.

The next assay concerns the target Phosphodiesterase 4 (Rattus norvegicus, UniProt P14270+P14646+P14644+P54748). The assay is described as follows: Inhibition of phosphodiesterase 4 from rat liver at 0.3 uM (not determined).
`Cn1c(=O)n(Cc2ccccc2)c(=O)c2cc(-c3ccccc3)cnc21` came in with an IC50 of over 10 µM.
